Results taken from patent US12570642B2, “GLP-IR modulating compounds” (Gilead Sciences, Inc., priority 2021, dated 2026).

target: GLP-1R (Homo sapiens, UniProt P43220); assay: GLP-1R Activation - cAMP Assay; assay type: cell-based; settings: cAMP increase in CHO cells stably expressing GLP-1R; each compound run on one of the two cAMP assays (Assay 1 or Assay 2, not specified)
Outline: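 CHO cells stably expressing GLP-1R, plated at 1,000 cells/well overnight, then equilibrated 1 h in HBSS with 20 mM Hepes and 0.1% BSA. Agonist added as 10-point dose response for 30 min at 37 °C. cAMP measured by HTRF (Cisbio Gs Dynamic kit); EC50 from sigmoidal fit.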

Chain of GLP-1R (P43220 24-463): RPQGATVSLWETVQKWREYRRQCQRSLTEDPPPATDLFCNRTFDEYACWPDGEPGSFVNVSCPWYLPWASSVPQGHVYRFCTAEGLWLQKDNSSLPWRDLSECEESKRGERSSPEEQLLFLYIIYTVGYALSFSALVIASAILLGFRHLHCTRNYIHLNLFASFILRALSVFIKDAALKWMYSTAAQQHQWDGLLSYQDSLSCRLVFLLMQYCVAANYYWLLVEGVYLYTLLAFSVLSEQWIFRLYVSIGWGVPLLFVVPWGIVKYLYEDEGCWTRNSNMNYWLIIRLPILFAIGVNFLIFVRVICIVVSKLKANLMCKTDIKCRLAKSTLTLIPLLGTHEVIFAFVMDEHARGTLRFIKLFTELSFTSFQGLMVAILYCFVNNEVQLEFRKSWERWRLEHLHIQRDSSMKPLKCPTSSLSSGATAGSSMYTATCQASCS

Structure (SMILES) | EC50
Cn1nnc2cc(COc3cccc(-c4cc(F)c(Cc5nc6ccc(C(=O)O)cc6n5C[C@@H]5CCO5)cc4F)n3)ccc21 [Example 523, (S)-2-(2,5-difluoro-4-(6-((1-methyl-1H-benzo[d][1,2,3]triazol-5-yl)methoxy)pyridin-2-yl)benzyl)-1-(oxetan-2-ylmethyl)-1H-benzo[d]imidazole-6-carboxylic acid] | 0.362 nM
Cn1ncc2ccc(COc3cccc(-c4cc(F)c(Cc5nc6ccc(C(=O)O)cc6n5C[C@@H]5CCO5)cc4F)n3)cc21 [Example 524, (S)-2-(2,5-difluoro-4-(6-((1-methyl-1H-indazol-6-yl)methoxy)pyridin-2-yl)benzyl)-1-(oxetan-2-ylmethyl)-1H-benzo[d]imidazole-6-carboxylic acid] | 0.605 nM
Cn1nnc2ccc(COc3cccc(-c4cc(F)c(Cc5nc6ccc(C(=O)O)cc6n5C[C@@H]5CCO5)cc4F)n3)cc21 [Example 525, (S)-2-(2,5-difluoro-4-(6-((1-methyl-1H-benzo[d][1,2,3]triazol-6-yl)methoxy)pyridin-2-yl)benzyl)-1-(oxetan-2-ylmethyl)-1H-benzo[d]imidazole-6-carboxylic acid] | 0.429 nM
Cn1ncc2cc(COc3cccc(-c4cc(F)c(Cc5nc6ccc(C(=O)O)cc6n5C[C@@H]5CCO5)cc4F)n3)ccc21 [Example 526, (S)-2-(2,5-difluoro-4-(6-((1-methyl-1H-indazol-5-yl)methoxy)pyridin-2-yl)benzyl)-1-(oxetan-2-ylmethyl)-1H-benzo[d]imidazole-6-carboxylic acid] | 0.509 nM
O=C(O)c1ccc2nc(Cc3cc(F)c(-c4cccc(OCc5ccc6nsnc6c5)n4)cc3F)n(C[C@@H]3CCO3)c2c1 [Example 527, (S)-2-(4-(6-(benzo[c][1,2,5]thiadiazol-5-ylmethoxy)pyridin-2-yl)-2,5-difluorobenzyl)-1-(oxetan-2-ylmethyl)-1H-benzo[d]imidazole-6-carboxylic acid] | 0.184 nM
COC(=O)N1Cc2ccc(COc3cccc(-c4cc(F)c(Cc5nc6ccc(C(=O)O)cc6n5[C@@H]5COCC5(C)C)cc4F)n3)cc2C1 [Example 529, (S)-2-(2,5-difluoro-4-(6-((2-(methoxycarbonyl)isoindolin-5-yl)methoxy)pyridin-2-yl)benzyl)-1-(4,4-dimethyltetrahydrofuran-3-yl)-1H-benzo[d]imidazole-6-carboxylic acid] | 0.598 nM
O=C(O)c1ccc2nc(Cc3cc(F)c(-c4cccc(OCc5ccc6ncsc6c5)n4)cc3F)n(C[C@@H]3CCO3)c2c1 [Example 530, (S)-2-(4-(6-(benzo[d]thiazol-6-ylmethoxy)pyridin-2-yl)-2,5-difluorobenzyl)-1-(oxetan-2-ylmethyl)-1H-benzo[d]imidazole-6-carboxylic acid] | 0.392 nM
Cn1c(=O)sc2cc(COc3cccc(-c4cc(F)c(Cc5nc6ccc(C(=O)O)cc6n5C[C@@H]5CCO5)cc4F)n3)ccc21 [Example 531, (S)-2-(2,5-difluoro-4-(6-((3-methyl-2-oxo-2,3-dihydrobenzo[d]thiazol-6-yl)methoxy)pyridin-2-yl)benzyl)-1-(oxetan-2-ylmethyl)-1H-benzo[d]imidazole-6-carboxylic acid] | 0.396 nM
COC(=O)c1ccc2nc(Cc3cc(F)c(-c4cccc(OCc5ccc(Cl)cc5F)n4)cc3F)n([C@@H]3COCC3(C)C)c2c1 [Example 532, (S)-methyl 2-(4-(6-((4-chloro-2-fluorobenzyl)oxy)pyridin-2-yl)-2,5-difluorobenzyl)-1-(4,4-dimethyltetrahydrofuran-3-yl)-1H-benzo[d]imidazole-6-carboxylate] | 3680 nM
CO[C@H]1COC[C@H]1n1c(Cc2cc(F)c(-c3cccc(OCc4ccc(Cl)cc4F)n3)cc2F)nc2ccc(C(=O)O)cc21 [Example 533, 2-(4-(6-((4-chloro-2-fluorobenzyl)oxy)pyridin-2-yl)-2,5-difluorobenzyl)-1-((3R,4R)-4-methoxytetrahydrofuran-3-yl)-1H-benzo[d]imidazole-6-carboxylic acid] | 0.5 nM
CO[C@H]1COC[C@H]1n1c(Cc2cc(F)c(-c3ccc(F)c(OCc4ccc(Cl)cc4F)n3)cc2F)nc2ccc(C(=O)O)cc21 [Example 534, 2-(4-(6-((4-chloro-2-fluorobenzyl)oxy)-5-fluoropyridin-2-yl)-2,5-difluorobenzyl)-1-((3R,4R)-4-methoxytetrahydrofuran-3-yl)-1H-benzo[d]imidazole-6-carboxylic acid] | 0.353 nM
N#Cc1ccc(COc2cccc(-c3cc(F)c(Cc4nc5ccc(C(=O)O)cc5n4[C@H]4COC[C@H]4OCC(F)F)cc3F)n2)c(F)c1 [Example 541, 2-(4-(6-((4-cyano-2-fluorobenzyl)oxy)pyridin-2-yl)-2,5-difluorobenzyl)-1-((3S,4S)-4-(2,2-difluoroethoxy)tetrahydrofuran-3-yl)-1H-benzo[d]imidazole-6-carboxylic acid] | 0.434 nM

The next molecules have a lower EC50 than those just listed; values first:

EC50 | Structure (SMILES)
0.165 nM | CC(=O)N1Cc2ccc(COc3cccc(-c4cc(F)c(Cc5nc6ccc(C(=O)O)cc6n5C[C@@H]5CCO5)cc4F)n3)cc2C1 [Example 522, (S)-2-(4-(6-((2-acetylisoindolin-5-yl)methoxy)pyridin-2-yl)-2,5-difluorobenzyl)-1-(oxetan-2-ylmethyl)-1H-benzo[d]imidazole-6-carboxylic acid]
0.047 nM | CC1(C)COC[C@H]1n1c(Cc2cc(F)c(-c3cccc(OCc4cnc(-n5ccnn5)cc4Cl)n3)cc2F)nc2c(Cl)cc(C(=O)O)cc21 [Example 528, (S)-4-chloro-2-(4-(6-((4-chloro-6-(1H-1,2,3-triazol-1-yl)pyridin-3-yl)methoxy)pyridin-2-yl)-2,5-difluorobenzyl)-1-(4,4-dimethyltetrahydrofuran-3-yl)-1H-benzo[d]imidazole-6-carboxylic acid]
0.099 nM | Cn1cc(-c2ccc(COc3cccc(-c4cc(F)c(Cc5nc6ccc(C(=O)O)cc6n5[C@@H]5COCC5(C)C)cc4F)n3)c(F)c2)cn1 [Example 535, (S)-2-(2,5-difluoro-4-(6-((2-fluoro-4-(1-methyl-1H-pyrazol-4-yl)benzyl)oxy)pyridin-2-yl)benzyl)-1-(4,4-dimethyltetrahydrofuran-3-yl)-1H-benzo[d]imidazole-6-carboxylic acid]
0.083 nM | CC1(C)COC[C@H]1n1c(Cc2cc(F)c(-c3ccc(F)c(OCc4ccc(C(F)(F)F)cc4)n3)cc2F)nc2ccc(C(=O)O)cc21 [Example 536, (S)-2-(2,5-difluoro-4-(5-fluoro-6-((4-(trifluoromethyl)benzyl)oxy)pyridin-2-yl)benzyl)-1-(4,4-dimethyltetrahydrofuran-3-yl)-1H-benzo[d]imidazole-6-carboxylic acid]
0.121 nM | CC1(C)COC[C@H]1n1c(Cc2cc(F)c(-c3ccnc(OCc4ccc(C(F)(F)F)cc4)n3)cc2F)nc2ccc(C(=O)O)cc21 [Example 537, (S)-2-(2,5-difluoro-4-(2-((4-(trifluoromethyl)benzyl)oxy)pyrimidin-4-yl)benzyl)-1-(4,4-dimethyltetrahydrofuran-3-yl)-1H-benzo[d]imidazole-6-carboxylic acid]
0.109 nM | COC[C@H]1COC[C@H]1n1c(Cc2cc(F)c(-c3ccc(F)c(OCc4ccc(C(F)(F)F)cc4)n3)cc2F)nc2ccc(C(=O)O)cc21 [Example 538, 2-(2,5-difluoro-4-(5-fluoro-6-((4-(trifluoromethyl)benzyl)oxy)pyridin-2-yl)benzyl)-1-((3S,4S)-4-(methoxymethyl)tetrahydrofuran-3-yl)-1H-benzo[d]imidazole-6-carboxylic acid]
0.052 nM | N#Cc1ccc(COc2cccc(-c3cc(F)c(Cc4nc5ccc(C(=O)O)cc5n4[C@@H]4COC[C@@H]4OCC(F)F)cc3F)n2)c(F)c1 [Example 540, 2-(4-(6-((4-cyano-2-fluorobenzyl)oxy)pyridin-2-yl)-2,5-difluorobenzyl)-1-((3R,4R)-4-(2,2-difluoroethoxy)tetrahydrofuran-3-yl)-1H-benzo[d]imidazole-6-carboxylic acid]
0.033 nM | COC[C@H]1COC[C@H]1n1c(Cc2cc(F)c(-c3cccc(OCc4ccc(Cl)cc4F)n3)cc2F)nc2ccc(C(=O)O)cc21 [Example 542, 2-(4-(6-((4-chloro-2-fluorobenzyl)oxy)pyridin-2-yl)-2,5-difluorobenzyl)-1-((3S,4S)-4-(methoxymethyl)tetrahydrofuran-3-yl)-1H-benzo[d]imidazole-6-carboxylic acid]
0.038 nM | COC[C@H]1COC[C@H]1n1c(Cc2cc(F)c(-c3ccc(F)c(OCc4ccc(Cl)cc4F)n3)cc2F)nc2ccc(C(=O)O)cc21 [Example 543, 2-(4-(6-((4-chloro-2-fluorobenzyl)oxy)-5-fluoropyridin-2-yl)-2,5-difluorobenzyl)-1-((3S,4S)-4-(methoxymethyl)tetrahydrofuran-3-yl)-1H-benzo[d]imidazole-6-carboxylic acid]
0.048 nM | COC[C@H]1COC[C@H]1n1c(Cc2cc(F)c(-c3cccc(OCc4ccc(Cl)cc4)n3)cc2F)nc2ccc(C(=O)O)cc21 [Example 544, 2-(4-(6-((4-chlorobenzyl)oxy)pyridin-2-yl)-2,5-difluorobenzyl)-1-((3S,4S)-4-(methoxymethyl)tetrahydrofuran-3-yl)-1H-benzo[d]imidazole-6-carboxylic acid]
0.044 nM | COC[C@H]1COC[C@H]1n1c(Cc2cc(F)c(-c3ccc(F)c(OCc4ccc(Cl)cc4)n3)cc2F)nc2ccc(C(=O)O)cc21 [Example 545, 2-(4-(6-((4-chlorobenzyl)oxy)-5-fluoropyridin-2-yl)-2,5-difluorobenzyl)-1-((3S,4S)-4-(methoxymethyl)tetrahydrofuran-3-yl)-1H-benzo[d]imidazole-6-carboxylic acid]
0.066 nM | Cn1cc(-c2ccc(COc3cccc(-c4cc(F)c(Cc5nc6ccc(C(=O)O)cc6n5[C@@H]5COCC5(C)C)cc4F)n3)cn2)nn1 [Example 550, (S)-2-(2,5-difluoro-4-(6-((6-(1-methyl-1H-1,2,3-triazol-4-yl)pyridin-3-yl)methoxy)pyridin-2-yl)benzyl)-1-(4,4-dimethyltetrahydrofuran-3-yl)-1H-benzo[d]imidazole-6-carboxylic acid]
